In US4550186A, “Binuclear copper (II) carboxylates formed from amine-carboxyboranes” (Duke University, priority 1983, dated 1985):

Molecular target: T1, ATP Dependent Citrate Lyase (Mus musculus, UniProt Q91V92)
T1 construct: 10% homogenates of CF1 male mouse liver; from tissue; host or cells: CF1 male mouse liver, 10% homogenate
T1 sequence (Q91V92 1-1091): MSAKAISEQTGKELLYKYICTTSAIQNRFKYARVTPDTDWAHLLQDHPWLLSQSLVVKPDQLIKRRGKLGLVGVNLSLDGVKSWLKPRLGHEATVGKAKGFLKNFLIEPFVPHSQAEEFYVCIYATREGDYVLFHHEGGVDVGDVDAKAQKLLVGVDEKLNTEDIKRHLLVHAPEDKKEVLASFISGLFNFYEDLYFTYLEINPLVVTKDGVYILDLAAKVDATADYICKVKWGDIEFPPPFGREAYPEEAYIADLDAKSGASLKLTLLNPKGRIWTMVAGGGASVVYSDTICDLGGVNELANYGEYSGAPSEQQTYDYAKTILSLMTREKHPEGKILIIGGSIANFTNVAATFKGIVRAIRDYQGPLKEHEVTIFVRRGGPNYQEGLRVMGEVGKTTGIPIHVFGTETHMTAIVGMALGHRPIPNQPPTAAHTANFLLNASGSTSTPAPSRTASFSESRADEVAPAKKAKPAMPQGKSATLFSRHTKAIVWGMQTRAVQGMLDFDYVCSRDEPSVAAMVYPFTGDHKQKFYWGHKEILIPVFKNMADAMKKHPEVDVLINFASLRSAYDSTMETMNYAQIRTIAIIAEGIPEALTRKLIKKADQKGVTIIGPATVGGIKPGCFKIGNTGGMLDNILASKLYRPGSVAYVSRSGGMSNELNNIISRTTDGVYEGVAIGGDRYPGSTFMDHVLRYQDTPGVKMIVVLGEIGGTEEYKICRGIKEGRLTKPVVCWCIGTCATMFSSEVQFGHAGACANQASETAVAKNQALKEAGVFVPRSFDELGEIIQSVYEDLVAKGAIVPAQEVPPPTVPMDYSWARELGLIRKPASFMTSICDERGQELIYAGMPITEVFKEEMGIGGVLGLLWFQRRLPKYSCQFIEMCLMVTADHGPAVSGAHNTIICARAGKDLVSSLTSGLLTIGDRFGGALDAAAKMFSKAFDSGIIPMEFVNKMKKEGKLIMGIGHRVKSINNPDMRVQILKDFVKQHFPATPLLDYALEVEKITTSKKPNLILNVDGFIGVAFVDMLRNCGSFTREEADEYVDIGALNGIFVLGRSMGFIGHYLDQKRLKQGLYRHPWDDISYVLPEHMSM
Test: In vitro liver enzyme study: ATP dependent citrate lyase
Type: biochemical
Conditions: in vitro CF1 liver, 30 min
Method: In vitro enzymatic studies were determined using 10% homogenates of CF1 male mouse liver with 50-200 μM of test drugs. In vivo enzymatic studies were determined using 10% homogenates of liver from CF1 male mice obtained after administering the agents for 16 days at a dose ranging from 2.5-20 mg/kg/day intraperitoneally. The liver homogenates for both in vitro and in vivo studies were prepared in 0.25M sucrose and 0.001M (ethylenedinitrilo)tetraacetic acid. Acetyl coenzyme A synthetase and adenosine triphosphate dependent citrate lyase activities were determined spectrophotometrically at 540 nm as the hydroxylamate of acetyl coenzyme A formed after 30 min at 37° C. Mitochondrial citrate exchange was determined by the procedure of Robinson et al [Eur. J. Biochem., 216, 63 (1970)] using ^14 C-sodium bicarbonate (41 mCi/mmol) incorporated into mitochondrial ^14 C-citrate after isolating rat mitochondria (9000 g×10 min) from the homogenates. The exchanges of the ^14 C-citrate were determined after incubating the mitochondrial fraction which was loaded with labeled citrate and test drugs for 10 min. Then the radioactivity was measured in the mitochondrial and supernantant fractions in scintillation fluid and expressed as a percentage. Cholesterol side chain oxidation was determined by the method of Kritchevsky and Tepper [Artherosclerosis, 18, 93 (1973)] using (26-^14 C) cholesterol (50 mCi/mmol) and mitochondria isolated from rat liver homogenates. […] Fatty acid synthetase activity was determined by the method of Brady et al [J. Biol. Chem., 235, 3093 (1960)] using [2-^14 C] malonyl-coenzyme A (37.5 mCi/mmol) which was incorporated into newly synthesized fatty acids that were extracted with ether and counted. Acyl transferase activity was determined with glycerol-3phosphate [L-2-^3 H(N)] […] HCl and counted. Phosphatidate phosphohydrolase activity was measured as the inorganic phosphate released after 30 min from phosphatidic acid by the method of Mavis et al [J. Lipid Res., 19, 467 (1978)]. […]

{Cu[(CH3)3 N.BH2 CO2 ]2.(CH3)3 N.BH2 COOH} [Compound I]
ATP Dependent Citrate Lyase (50 μM): 110 ± 6 Percent Control | ATP Dependent Citrate Lyase (100 μM): 98 ± 5 Percent Control | ATP Dependent Citrate Lyase (200 μM): 105 ± 7 Percent Control
